Source: patent publication US9815842B2, “Pyrazolo pyrimidine derivatives and their use as MALT1 inhibitors” (Novartis AG, priority 2014, dated 2017)

Key:
[1] = biological target: cIAP2-MALT1 fusion protein (Homo sapiens, UniProt Q9UDY8); assay: cell-based
Protocol: For the measurement of compound inhibition, 0.25 μl of test compound were mixed with 12.5 μl of enzyme in wells of the 384-well plates, and incubated for 60 minutes at room temperature (22° C.). After that, 12.5 μl of substrate was added, and the enzymatic reaction was allowed to proceed for 60 minutes at room temperature (22° C.). […] The DMSO content was between 0.9 and 1% (v/v). […] The IC50 value was calculated from the plot of percentage inhibition versus inhibitor concentration using non-linear regression analysis software (Origin, OriginLab Corporation, USA). The data were fitted using a 4 Parameter Logistic Model, characterized by the following equation: y=A2+(A1−A2)/(1+(x/IC50)^p) where y is the %-inhibition at the inhibitor concentration, x. A1 is the lowest inhibition value, and A2 the maximum inhibition value.

[2] = biological target: C-domain of MALT1 (amino acids 329-824) (Homo sapiens (Human), UniProt Q9UDY8); assay: MALT1 biochemical assay (fluorescence lifetime enzyme activity assay); conditions: 60 min pre-incubation, 2.5 nM enzyme, 1 μM peptide substrate
Protocol: The readout parameter is the increase of fluorescence lifetime over time, proportional to enzyme activity.
The assay employs a short peptide substrate labeled with the single fluorophore PT14 as a fluorescence lifetime probe sensitive to the cleavage state of the substrate (PT14: 6-(9-oxo-9H-acridin-10-yl)-hexanoate, AssayMetrics, UK). […] The assay buffer consists of 200 mM Tris/HCl at pH 7.5, 0.8 M Na citrate, 100 μM EGTA, 100 μM DTT and 0.05% (w/v) CHAPS. […] Test compounds were dissolved in 100% (v/v) DMSO or a mixture containing 90% (v/v) DMSO and 10% (v/v) H2O at a stock concentration of 100 mM. Serial dilutions of test compounds were prepared using either 100% (v/v) DMSO or a mixture containing 90% (v/v) DMSO and 10% (v/v) H2O.

Chain of cIAP2-MALT1 fusion protein (Q9UDY8 2-824 limits assumed): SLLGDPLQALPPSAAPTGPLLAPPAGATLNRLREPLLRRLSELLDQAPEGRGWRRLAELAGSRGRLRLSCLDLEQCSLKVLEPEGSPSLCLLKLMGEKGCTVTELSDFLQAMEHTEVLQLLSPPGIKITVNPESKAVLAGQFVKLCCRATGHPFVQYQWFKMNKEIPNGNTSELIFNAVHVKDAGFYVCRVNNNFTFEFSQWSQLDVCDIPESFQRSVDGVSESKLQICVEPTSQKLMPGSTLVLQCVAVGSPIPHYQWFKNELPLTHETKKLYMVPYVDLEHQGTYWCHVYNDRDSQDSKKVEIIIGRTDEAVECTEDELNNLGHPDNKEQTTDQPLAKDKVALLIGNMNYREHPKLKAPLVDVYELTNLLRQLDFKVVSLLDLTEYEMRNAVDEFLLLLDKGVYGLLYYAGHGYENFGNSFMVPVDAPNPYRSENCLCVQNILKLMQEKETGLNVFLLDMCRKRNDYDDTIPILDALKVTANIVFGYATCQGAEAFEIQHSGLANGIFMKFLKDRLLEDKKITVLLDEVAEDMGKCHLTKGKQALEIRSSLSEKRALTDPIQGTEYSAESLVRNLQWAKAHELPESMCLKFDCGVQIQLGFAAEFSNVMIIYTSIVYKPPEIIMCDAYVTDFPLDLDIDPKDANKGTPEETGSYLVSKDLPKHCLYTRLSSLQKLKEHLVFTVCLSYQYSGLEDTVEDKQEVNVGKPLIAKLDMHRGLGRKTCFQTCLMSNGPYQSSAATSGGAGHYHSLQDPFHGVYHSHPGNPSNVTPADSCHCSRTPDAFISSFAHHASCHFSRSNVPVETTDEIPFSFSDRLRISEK
Chain of C-domain of MALT1 (amino acids 329-824) (Q9UDY8 329-824): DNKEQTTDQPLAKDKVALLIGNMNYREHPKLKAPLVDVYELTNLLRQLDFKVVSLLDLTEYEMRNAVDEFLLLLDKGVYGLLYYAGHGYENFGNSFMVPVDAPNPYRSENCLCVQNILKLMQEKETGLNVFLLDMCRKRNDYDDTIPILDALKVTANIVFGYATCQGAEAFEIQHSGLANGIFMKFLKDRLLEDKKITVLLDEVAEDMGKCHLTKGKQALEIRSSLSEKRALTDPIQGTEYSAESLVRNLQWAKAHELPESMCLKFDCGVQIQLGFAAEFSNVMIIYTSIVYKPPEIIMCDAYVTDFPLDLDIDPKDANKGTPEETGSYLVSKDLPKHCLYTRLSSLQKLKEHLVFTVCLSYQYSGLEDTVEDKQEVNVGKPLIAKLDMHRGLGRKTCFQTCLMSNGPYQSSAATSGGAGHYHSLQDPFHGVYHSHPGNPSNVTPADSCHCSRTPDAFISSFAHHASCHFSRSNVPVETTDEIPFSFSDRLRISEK

SMILES	IC50 [1] [nM]	IC50 [2] [nM]
COc1cc(NC(=O)Nc2cnc3cc(Cl)nn3c2[C@H](C)OC)cnc1-n1nccn1 [Example 11, (S)-1-(2-chloro-7-(1-methoxyethyl)pyrazolo[1,5-a]pyrimidin-6-yl)-3-(5-methoxy-6-(2H-1,2,3-triazol-2-yl)pyridin-3-yl)urea]	164	19
CC(C)(C)c1c(NC(=O)Nc2cnc(-n3nccn3)c(Cl)c2)cnc2cc(Cl)nn12 [Example 34, 1-(7-(tert-butyl)-2-chloropyrazolo[1,5-a]pyrimidin-6-yl)-3-(5-chloro-6-(2H-1,2,3-triazol-2-yl)pyridin-3-yl)urea]	106	4
COc1ncc(NC(=O)Nc2cnc3cc(Cl)nn3c2C2C3COCC32)cc1Cl (centres unmarked) [Example 67, 1-(7-(3-oxabicyclo[3.1.0]hexan-6-yl)-2-chloropyrazolo[1,5-a]pyrimidin-6-yl)-3-(5-chloro-6-methoxypyridin-3-yl)urea]	553	35
CC(C)c1c(NC(=O)Nc2cc(Cl)cc3c2NC(=O)C3)cnc2cc(Cl)nn12 [Example 31, 1-(5-chloro-2-oxoindolin-7-yl)-3-(2-chloro-7-isopropylpyrazolo[1,5-a]pyrimidin-6-yl)urea]	349	14
CN(C)C(=O)c1c(NC(=O)Nc2cnc(-n3nccn3)c(Cl)c2)cnc2cc(Cl)nn12 [Example 70, 2-chloro-6-(3-(5-chloro-6-(2H-1,2,3-triazol-2-yl)pyridin-3-yl)ureido)-N,N-dimethylpyrazolo[1,5-a]pyrimidine-7-carboxamide]	891	123
C[C@@H](OCc1ccccc1)c1c(NC(=O)Nc2cnc(-n3nccn3)c(C(F)(F)F)c2)cnc2cc(Cl)nn12 [Example 65, (R)-1-(6-(2H-1,2,3-triazol-2-yl)-5-(trifluoromethyl)pyridin-3-yl)-3-(7-(1-(benzyloxy)ethyl)-2-chloropyrazolo[1,5-a]pyrimidin-6-yl)urea]	405	9
COc1ccccc1-c1c(NC(=O)Nc2cnc(-n3nccn3)c(Cl)c2)cnc2cc(Cl)nn12 [Example 53, 1-(5-chloro-6-(2H-1,2,3-triazol-2-yl)pyridin-3-yl)-3-(2-chloro-7-(2-methoxyphenyl)pyrazolo[1,5-a]pyrimidin-6-yl)urea]	171	4
COC(C)(C)c1c(NC(=O)Nc2ccnc(C(F)(F)F)c2)cnc2cc(Cl)nn12 [Example 15, 1-(2-chloro-7-(2-methoxypropan-2-yl)pyrazolo[1,5-a]pyrimidin-6-yl)-3-(2-(trifluoromethyl)pyridin-4-yl)urea]	110	5
COCC1(c2c(NC(=O)Nc3cnc(-n4nccn4)c(Cl)c3)cnc3cc(Cl)nn23)CCC1 [Example 50, 1-(5-chloro-6-(2H-1,2,3-triazol-2-yl)pyridin-3-yl)-3-(2-chloro-7-(1-(methoxymethyl)cyclobutyl)pyrazolo[1,5-a]pyrimidin-6-yl)urea]	230	20
O=C(Nc1cnc(-n2nccn2)c(Cl)c1)Nc1cnc2cc(Cl)nn2c1CC1CCOCC1 [Example 60, 1-(5-chloro-6-(2H-1,2,3-triazol-2-yl)pyridin-3-yl)-3-(2-chloro-7-((tetrahydro-2H-pyran-4-yl)methyl)pyrazolo[1,5-a]pyrimidin-6-yl)urea]	502	26
CC1(c2c(NC(=O)Nc3cnc(-n4nccn4)c(Cl)c3)cnc3cc(Cl)nn23)CCOCC1 [Example 55, 1-(5-chloro-6-(2H-1,2,3-triazol-2-yl)pyridin-3-yl)-3-(2-chloro-7-(4-methyltetrahydro-2H-pyran-4-yl)pyrazolo[1,5-a]pyrimidin-6-yl)urea]	287	5
CC1(c2c(NC(=O)Nc3ccnc(C(F)(F)F)c3)cnc3cc(Cl)nn23)CCCO1 (centres unmarked) [Example 36, 1-(2-chloro-7-(2-methyltetrahydrofuran-2-yl)pyrazolo[1,5-a]pyrimidin-6-yl)-3-(2-(trifluoromethyl)pyridin-4-yl)urea]	183	9
CO[C@@H](c1c(NC(=O)Nc2cnc(-n3nccn3)c(Cl)c2)cnc2cc(Cl)nn12)C(C)C [Example 5, (R)-1-(5-chloro-6-(2H-1,2,3-triazol-2-yl)pyridin-3-yl)-3-(2-chloro-7-(1-methoxy-2-methylpropyl)pyrazolo[1,5-a]pyrimidin-6-yl)urea]	112	5
COCCC(OC)c1c(NC(=O)Nc2cnc(-n3nccn3)c(Cl)c2)cnc2cc(Cl)nn12 (centres unmarked) [Example 64, 1-(5-chloro-6-(2H-1,2,3-triazol-2-yl)pyridin-3-yl)-3-(2-chloro-7-(1,3-dimethoxypropyl)pyrazolo[1,5-a]pyrimidin-6-yl)urea]	187	13
CO[C@@H](C)c1c(NC(=O)Nc2ccnc(Cl)c2)cnc2cc(Cl)nn12 [Example 12, (S)-1-(2-chloro-7-(1-methoxyethyl)pyrazolo[1,5-a]pyrimidin-6-yl)-3-(2-chloropyridin-4-yl)urea]	71	14
CC(C)OCc1c(NC(=O)Nc2cnc(-n3nccn3)c(Cl)c2)cnc2cc(Cl)nn12 [Example 61, 1-(5-chloro-6-(2H-1,2,3-triazol-2-yl)pyridin-3-yl)-3-(2-chloro-7-(isopropoxymethyl)pyraozlo[1,5-a]pyrimidin-6-yl)urea]	370	19
CN1CCCC[C@H]1c1c(NC(=O)Nc2cnc(-n3nccn3)c(Cl)c2)cnc2cc(Cl)nn12 [Example 84, (S)-1-(5-chloro-6-(2H-1,2,3-triazol-2-yl)pyridin-3-yl)-3-(2-chloro-7-(1-methylpiperidin-2-yl)pyrazolo[1,5-a]pyrimidin-6-yl)urea]	89	19
CO[C@@H](c1c(NC(=O)Nc2ccnc(C(F)(F)F)c2)cnc2cc(Cl)nn12)C(C)C [Example 37, (R)-1-(2-chloro-7-(1-methoxy-2-methylpropyl)pyrazolo[1,5-a]pyrimidin-6-yl)-3-(2-(trifluoromethyl)pyridin-4-yl)urea]	221	11
COCCO[C@H](C)c1c(NC(=O)Nc2cnc(-n3nccn3)c(Cl)c2)cnc2cc(Cl)nn12 [Example 42, (R)-1-(5-chloro-6-(2H-1,2,3-triazol-2-yl)pyridin-3-yl)-3-(2-chloro-7-(1-(2-methoxyethoxy)ethyl)pyrazolo[1,5-a]pyrimidin-6-yl)urea]	378	21
O=C(Nc1cnc(-n2nccn2)c(Cl)c1)Nc1cnc2cc(Cl)nn2c1C1CCOC1 (centres unmarked) [Example 57, 1-(5-chloro-6-(2H-1,2,3-triazol-2-yl)pyridin-3-yl)-3-(2-chloro-7-(tetrahydrofuran-3-yl)pyrazolo[1,5-a]pyrimidin-6-yl)urea]	284	19
C[C@H](OCCN(C)C)c1c(NC(=O)Nc2cnc(-n3nccn3)c(Cl)c2)cnc2cc(Cl)nn12 [Example 82, (S)-1-(5-chloro-6-(2H-1,2,3-triazol-2-yl)pyridin-3-yl)-3-(2-chloro-7-(1-(2-(dimethylamino)ethoxy)ethyl)pyrazolo[1,5-a]pyrimidin-6-yl)urea]	311	122
CC(C)(c1c(NC(=O)Nc2ccnc(C(F)(F)F)c2)cnc2cc(Cl)nn12)C1CCOCC1 [Example 80, 1-(2-chloro-7-(2-(tetrahydro-2H-pyran-4-yl)propan-2-yl)pyrazolo[1,5-a]pyrimidin-6-yl)-3-(2-(trifluoromethyl)pyridin-4-yl)urea]	621	34
